Source: US20100104614A1, “PROVIDONE COMPOSITIONS FOR WOUND HEALING” (priority 2008, published 2010)

Assay: Treatment of non-healing dog bite wounds in a patient (Example 1)
Type: in vivo, human
Conditions: course of antibiotics (a cephalosporin and flagyl) and daily dressing changes; after five weeks
Description: A patient presented with six non-healing dog bite wounds, one on their forearm, and the rest on their lower extremeties. Their wounds were treated with a course of antibiotics (a cephalosporin and flagyl) and daily dressing changes. […] Further treatment with hyperbaric oxygen was being contemplated.
Approximately one tablespoon of povidone powder was sprinkled over the patient's wounds. Within four days, wounds had completely healed.

## Cc1ncc([N+](=O)[O-])n1CCO [flagyl]
  wound healing outcome of prior treatment: remained unhealed
